According to patent publication US20250296967A1 (Ferring B.V., priority 2006, published 2025):

Key:
[1] = Comparative release of synthetic growth factor analogues from a single scaffold (BCA, FIG. 5); type: physicochemical; conditions: 100 μg peptide/cc granule, 0.9% saline
Protocol: Methods for assaying peptide release from a single scaffold are as follows: 1 cc of granules were added to 1.2 mL of 0.9% saline or of peptide solution in 0.9% saline having a concentration of 100 μg B2A2-K-NS, LA2, or F2A4/cc granule. The granule-peptide solutions were swirled vigorously for 15 seconds every 5 minutes for 20 minutes. After swirling, the supernatant was removed and assayed via BCA or micro BCA assay for peptide content. The BCA value for each peptide was corrected relative to the BSA standard curve.
Referring now to FIG. 5, the shape of the release curve is similar for all three peptides (B2A2-K-NS (diamonds), LA2 (squares), and F2A4-K-NS (triangles)). However, the magnitude of the release is markedly different.

[2] = tested on: B2A2-K-NS; test: Release of B2A2-K-NS from peptide bound BRGs (ELISA); type: physicochemical; conditions: 0.9% saline
Protocol: The third step was to measure the amount of peptide released using the same ELISA assay. Briefly, the peptide bound BRGs were placed in 1 ml of 0.9% saline and the amount of peptide released was measured over a 72 hours period.

[3] = biological target: T1, Type I, bovine-derived, dermal collagen sheets (Bos taurus, UniProt P02453+P02465); test: Release of B2A2-K-NS from collagen (BCA); type: physicochemical; conditions: 0.9% saline
T1 construct: Type I, bovine-derived, dermal collagen sheets; from tissue; host or cells: bovine dermis
Protocol: To initiate release, a vial containing collagen coated with B2A2-K-NS was replenished with 2 ml of 0.9% saline and placed on the rocking platform. After specified time interval, the supernatant was removed, filtered, and collected. A BCA assay was utilized to determine peptide concentrations. […] The BSA standard curve was generated by placing BSA in supernatant from the collagen sponge (without peptide).

[4] = Release of B2A2-K-NS from ceramic granules (BCA, cumulative release, FIG. 1); type: physicochemical; conditions: first 4 hour period, 0.9% saline
Protocol: Methods: After binding the peptide to the granules as described in Example 2, each of the vials containing particulate materials was replenished with 1.8 mL of 0.9% saline and placed on the rocking platform. After specified time interval, the supernatant was removed, filtered, and collected over a period of 43 hrs. Based on the amount of the peptide present in the supernatant, the amount of peptide bound to or released from the particles as was calculated. The study was performed on two separate days with the averages plotted showing cumulative peptide released vs. time (see graph in FIG. 1) (Note: the HA plus silicon was only performed at high dose). A BCA assay was utilized to determine peptide concentrations. The 60:40 granule was pH 8.8.
Referring now to FIG. 1, the release characteristics of specified materials tested. There was a burst of peptide released over a 4 hour period (supernatant was assessed hourly for the first four hours). At high loading doses (431 μg peptide/cc granule), the burst phase accounted for 12-22% of the total amount of peptide loaded. For intermediate loading doses (144 μg peptide/cc granule), the burst phase accounted for 25-35% of the total amount loaded. For low doses (43 μg peptide/cc granule), the burst phase accounted for 48-59% of the total amount loaded. Following the burst period, there was a slower, sustained release period.
The diamond on the graph represents 60% HAP and 40% TCP (high dose). The square represents 60% HAP and 40% TCP (medium dose). The triangle represents 20% HAP and 80% TCP (high dose). The X represents 20% HAP and 80% TCP (medium dose). The star represents 100% HAP plus Si (high dose). The filled-in circle represents 60% HAP and 40% TCP (low dose), and the plus sign represents 20% HAP and 80% TCP (low dose).

[5] = tested on: ectopic bone; test: Ectopic bone induction by B2A2-K-NS coated granules with exogenous recombinant BMP-2, subcutaneous implant in rats; type: in vivo
Protocol: Sterile ceramic granules (Berkeley Advanced Biomaterials, Inc.; 60:40 (HA:TCP)) where coated by immersing them for 30 minutes in a solution containing B2A2-K-NS (0-, 2.5-, 10-, 25 μg/ml). Thereafter, the solution was removed by aspiration and the granules allowed to air dry. The coated granules were then placed in sterile gelatin capsules. […] The capsules were placed subcutaneously in young adult rats on the flanks in pre-prepared pouches and the surgical site closed with surgical clips. After 30 days, the implants were surgically removed, weighed, and palpated to assess hardness. The explants were then fixed with multiple changes into 70% ethanol.

[6] = tested on: B2A2-K-NS; test: Binding of B2A2-K-NS to ceramic granules (BCA / micro BCA, subtraction method); type: physicochemical; conditions: high B2A2-K-NS coating concentrations, as described in Example 2
Protocol: Methods. 1.5 cc of granules were added to 1.8 mL of 0.9% saline or of peptide solution in 0.9% saline having a concentration of 35.9, 119.8, 359.3 μg/ml. The granule-peptide solutions were swirled vigorously for 15 seconds every 5 minutes for 20 minutes. After swirling, the supernatant was removed, filtered through 0.22 μm filter (low protein binding durapore (PVDF)) and assayed via Bicinchoninic Acid (BCA) or micro BCA assay (Pierce, Rockport, IL) for peptide content. The amount of peptide bound to the particles was obtained by subtraction method (the total peptide minus peptide present in the supernatant is equal to the amount of peptide bound on particulate materials.). The study was performed on two separate days and the results averaged below: […]

[7] = tested on: B2A2-K-NS; test: Binding of B2A2-K-NS to commercially available bone replacement grafts (ELISA, difference method); type: physicochemical; conditions: BRGs in 0.9% saline
Protocol: The next step was to determine whether the peptide was able to bind these BRGs. B2A2-K-NS (approximately 20 μg/ml) was incubated in one ml of 0.9% saline solution with 0.17 gram BRGs for 15 minutes. An ELISA assay was performed both on peptide solution without BRGs and the supernatant from the peptide+BRG. The difference between the peptide only reading and the supernatant from the peptide+BRG provided the amount of peptide bound.
The binding definitions are defined as follows: None is no detectable binding. High is binding>20 μg peptide/cc graft material. Intermediate is less than 20 μg peptide/cc graft material, but above non-detectable binding.

[8] = biological target: T1, Type I, bovine-derived, dermal collagen sheets; test: Binding of B2A2-K-NS to collagen sheets; type: physicochemical; conditions: 1,072 μg B2A2-K-NS/ml collagen sheet in 0.9% saline
Protocol: Type I, bovine-derived, dermal collagen sheets that were crosslinked with DHT and lyophilized were incubated with 1,072 μg B2A2-K-NS/ml collagen sheet in 0.9% saline solution. The binding efficiency was 61%, which was far lower than the binding efficiency on the Ca^2+ containing granules at high B2A2-K-NS coating concentrations (87-95% as described in Example 2). Lower binding efficiencies may be attributed to lower surface area as compared to that of the granules.

[9] = tested on: mouse pluripotent cell lines C2C12; test: Alkaline phosphatase assay of B2A2-K-NS released from 20:80 granules, with or without BMP-2; type: cell-based; conditions: peptide released from 20:80 granules, 1.25- to 10 μg/ml, BMP-2 100 ng/ml, C2C12 cells, 1 day
Protocol: Methods: (A) Peptide was collected over a six hour period after release from 20:80 (as described in Example 3). The supernatants from all time points were mixed, frozen, and lyophilized for 48 hours. The peptide pellet was reconstituted in 1.5 ml saline and a BCA assay performed to determine peptide concentration.
(B) Alkaline phosphatase assays were performed using mouse pluripotent cell lines C2C12. Cells were plated in 96-well (1×10^4/well) plates in DMEM/F-12 Ham's containing 15% FBS, 1% L-gln, 1% NaPyr, and 1% gentamycin and allowed 24 hours to attach at 37 C, 5% CO2, 90% humidity. […] After 1 day, ALP activity was determined.

T1 sequence (P02453 162-1217 limits assumed): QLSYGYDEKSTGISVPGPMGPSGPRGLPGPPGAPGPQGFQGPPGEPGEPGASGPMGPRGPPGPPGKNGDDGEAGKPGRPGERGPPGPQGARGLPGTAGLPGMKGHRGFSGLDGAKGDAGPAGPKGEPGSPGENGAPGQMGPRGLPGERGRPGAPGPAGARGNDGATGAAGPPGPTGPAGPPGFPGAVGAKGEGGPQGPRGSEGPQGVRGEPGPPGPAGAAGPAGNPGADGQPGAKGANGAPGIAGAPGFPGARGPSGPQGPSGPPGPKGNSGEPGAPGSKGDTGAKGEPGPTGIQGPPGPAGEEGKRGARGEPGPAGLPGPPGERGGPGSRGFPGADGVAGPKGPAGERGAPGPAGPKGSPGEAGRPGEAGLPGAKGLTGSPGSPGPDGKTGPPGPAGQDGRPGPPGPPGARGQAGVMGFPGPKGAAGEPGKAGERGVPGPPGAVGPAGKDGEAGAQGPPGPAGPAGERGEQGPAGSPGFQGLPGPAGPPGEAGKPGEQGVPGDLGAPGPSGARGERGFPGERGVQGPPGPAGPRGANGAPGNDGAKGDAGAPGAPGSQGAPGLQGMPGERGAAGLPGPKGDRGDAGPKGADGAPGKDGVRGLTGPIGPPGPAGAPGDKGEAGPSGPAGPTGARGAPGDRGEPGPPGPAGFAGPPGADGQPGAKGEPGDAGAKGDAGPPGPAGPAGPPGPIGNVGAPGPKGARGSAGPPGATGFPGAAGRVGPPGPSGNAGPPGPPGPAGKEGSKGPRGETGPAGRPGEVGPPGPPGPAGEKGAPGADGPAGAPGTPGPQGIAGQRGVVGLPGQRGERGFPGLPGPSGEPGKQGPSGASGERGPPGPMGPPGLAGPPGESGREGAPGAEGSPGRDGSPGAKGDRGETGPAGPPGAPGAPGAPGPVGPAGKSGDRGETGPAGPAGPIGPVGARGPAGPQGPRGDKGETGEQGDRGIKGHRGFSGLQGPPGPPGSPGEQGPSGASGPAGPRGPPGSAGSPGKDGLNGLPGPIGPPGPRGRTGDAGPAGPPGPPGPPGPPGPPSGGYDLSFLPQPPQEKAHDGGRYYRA
T1 sequence (P02465 80-1117 limits assumed): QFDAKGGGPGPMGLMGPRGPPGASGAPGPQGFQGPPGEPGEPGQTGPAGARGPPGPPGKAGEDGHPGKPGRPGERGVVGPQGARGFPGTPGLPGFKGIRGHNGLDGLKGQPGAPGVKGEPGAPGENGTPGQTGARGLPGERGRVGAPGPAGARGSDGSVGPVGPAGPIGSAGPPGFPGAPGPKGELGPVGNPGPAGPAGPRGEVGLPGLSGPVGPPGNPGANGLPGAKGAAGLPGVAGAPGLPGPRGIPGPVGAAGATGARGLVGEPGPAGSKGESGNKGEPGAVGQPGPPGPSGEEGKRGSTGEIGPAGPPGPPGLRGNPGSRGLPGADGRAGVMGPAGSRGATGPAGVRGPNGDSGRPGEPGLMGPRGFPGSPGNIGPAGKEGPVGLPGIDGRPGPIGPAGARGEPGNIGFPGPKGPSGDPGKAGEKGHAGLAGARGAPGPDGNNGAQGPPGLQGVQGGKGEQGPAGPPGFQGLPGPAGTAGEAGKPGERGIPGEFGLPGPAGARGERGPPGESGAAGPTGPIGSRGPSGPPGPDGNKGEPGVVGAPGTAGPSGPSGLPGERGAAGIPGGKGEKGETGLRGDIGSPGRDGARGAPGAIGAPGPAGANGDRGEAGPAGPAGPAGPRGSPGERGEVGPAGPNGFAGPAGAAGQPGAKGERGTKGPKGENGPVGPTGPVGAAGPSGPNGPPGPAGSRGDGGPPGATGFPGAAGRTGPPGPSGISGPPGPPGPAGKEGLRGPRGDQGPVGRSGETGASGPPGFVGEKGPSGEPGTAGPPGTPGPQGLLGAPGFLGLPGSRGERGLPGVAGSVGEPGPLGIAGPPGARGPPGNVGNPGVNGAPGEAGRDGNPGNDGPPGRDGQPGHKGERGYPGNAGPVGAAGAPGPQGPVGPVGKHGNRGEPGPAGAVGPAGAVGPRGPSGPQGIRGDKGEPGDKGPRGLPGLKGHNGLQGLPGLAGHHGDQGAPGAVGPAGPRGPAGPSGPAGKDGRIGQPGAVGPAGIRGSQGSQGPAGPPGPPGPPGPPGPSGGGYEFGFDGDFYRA

Row | Substance | release of peptide from the scaffold (relative magnitude) [1] | pH range of materials from which the peptide could release [2] | cumulative amount of peptide released ([3]; after 1 hour) [%] | cumulative amount of peptide released ([3]; after 2 hours) [%] | cumulative amount of peptide released ([3]; after 3 hours) [%] | cumulative amount of peptide released ([3]; after 4 hours) [%] | burst phase release, share of the total amount of peptide loaded ([4]; high loading doses (431 μg peptide/cc granule)) | burst phase release, share of the total amount loaded ([4]; intermediate loading doses (144 μg peptide/cc granule)) | burst phase release, share of the total amount loaded ([4]; low doses (43 μg peptide/cc granule)) | implants judged palpably hardened ([5]; coated with 2.5 μg B2A2-K-NS, 1 μg recombinant BMP-2, rats, 30 days) | implants judged palpably hardened ([5]; coated with 10 μg B2A2-K-NS, 1 μg recombinant BMP-2, rats, 30 days) | implants judged palpably hardened ([5]; coated with 25 ug B2A2-K-NS, 1 μg recombinant BMP-2, rats, 30 days) | implants with histologically identifiable new bone ([5]; coated with 25 ug B2A2-K-NS, 1 μg recombinant BMP-2, rats, 30 days, hematoxylin and eosin) | explant weight versus controls (no BMP-2, no B2A2-K-NS) ([5]; rats, subcutaneous, 60:40 (HA:TCP) granules coated with 25 μg B2A2-K-NS, 1 μg recombinant BMP-2, 30 days) | explant weight versus those containing BMP-2 but no B2A2-K-NS ([5]; rats, subcutaneous, granules coated with 25 μg B2A2-K-NS, 1 μg recombinant BMP-2, 30 days) | binding efficiency on the Ca2+ containing granules [6] | pH range of BRGs to which the peptide was found to bind [7] | binding efficiency [8] [%] | effect on BMP-2 activity (ALP activity) [9]
1 | YRSRKYSSWYVALKRK(H-YRSRKYSSWYVALKR)HxHxHxRKRLDRIAR-amide [F2A4] | does not release readily |  |  |  |  |  |  |  |  |  |  |  |  |  |  |  |  |  | 
2 | SIKVAVAAK(H-SIKVAVAA)xHxHxRKRKLERIAR-amide [LA2] | most rapidly released |  |  |  |  |  |  |  |  |  |  |  |  |  |  |  |  |  | 
3 | AISMLYLDENEKVVLKK(AISMLYLDENEKVVLK)HxHxHxRKRLDRIARNH2 [B2A2-K-NS] |  | 6.3-10 | 11 | 19 | 23 | 28 | 12-22% | 25-35% | 48-59% | 3/4 | 3/4 | 4/4 | 4/4 | significantly higher weight | tended (p=0.11) to have a higher weight | 87-95% | 3.7-10.5 | 61 | increased BMP-2 activity
